According to patent US20030119748A1 (Idun Pharmaceuticals, Inc., priority 1996, published 2003):
Where two headings read alike, the source gives them in different places.

Legend:
mICE = molecular target: T1, mICE (Mus musculus, UniProt P29452); test: Fluorescence enzyme assay, IC50 for ICE (Example 1A); type: biochemical
T1 sequence (P29452 119-402): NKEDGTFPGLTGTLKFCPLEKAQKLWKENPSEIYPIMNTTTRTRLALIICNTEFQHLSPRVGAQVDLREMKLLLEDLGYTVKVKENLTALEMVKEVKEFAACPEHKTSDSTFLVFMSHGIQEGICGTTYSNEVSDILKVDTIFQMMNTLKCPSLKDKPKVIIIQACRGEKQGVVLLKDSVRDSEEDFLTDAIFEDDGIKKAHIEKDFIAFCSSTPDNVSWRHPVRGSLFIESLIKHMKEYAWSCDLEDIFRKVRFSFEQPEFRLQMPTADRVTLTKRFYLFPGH
Procedure: (§1) Fluorescence enzyme assays detecting the activity of the compounds of Formula 1 utilizing the recombinant ICE and CPP32 enzymes were performed essentially according to Thomberry et al. (Nature, 356:768:774 (1992)) and Nicholson et al. (Nature, 376:37-43 (1995)) respectively, (herein incorporated by reference) in 96 well microtiter plates. The substrate for these assays was Acetyl-Tyr-Val-Ala-Asp-amino-4-methylcoumarin (AMC) for the ICE assay and Acetyl-Asp-Glu-Val-Asp-amino-4-methylcoumarin for the CPP32 and Mch5 assays. Enzyme reactions were run in ICE buffer (25 mM HEPES, 1 mM EDTA, 0.1% CHAPS, 10% sucrose, pH 7.5) containing 2 mM DTT at room temperature in duplicate. The assays were performed by mixing the following components:
(§2) 50 μl of either ICE, Mch2, Mch5 or CPP32 (18.8, 38, 8.1 and 0.153 nM concentrations, respectively) enzyme in ICE buffer containing either 8.0 (ICE, Mch2, CPP32) or 20 (Mch5) mM DTT;
(§3) 50 μl of either the compound of Formula 1 or ICE buffer (control); and
(§4) 100 μl of 20 μM substrate.
(§5) The enzyme and the compound of Formula 1 to be assayed were preincubated in the microtitre plate wells for 30 minutes at room temperature prior to the addition of substrate to initiate the reaction. Fluorescent AMC product formation was monitored for one hour at room temperature by measuring the fluorescence emission at 460 nm using an excitation wavelength of 360 nm. The fluorescence change in duplicate (control) wells were averaged and the mean values were plotted as a function of inhibitor concentration to determine the inhibitor concentration producing 50% inhibition (IC50).

CPP32 = molecular target: T2, CPP32 (Homo sapiens, UniProt P42574); test: Fluorescence enzyme assay, IC50 for CPP32 (Example 1A); type: biochemical; settings: Table 1, Formula A; 30 min preincubation, room temperature
T2 sequence (P42574 29-277): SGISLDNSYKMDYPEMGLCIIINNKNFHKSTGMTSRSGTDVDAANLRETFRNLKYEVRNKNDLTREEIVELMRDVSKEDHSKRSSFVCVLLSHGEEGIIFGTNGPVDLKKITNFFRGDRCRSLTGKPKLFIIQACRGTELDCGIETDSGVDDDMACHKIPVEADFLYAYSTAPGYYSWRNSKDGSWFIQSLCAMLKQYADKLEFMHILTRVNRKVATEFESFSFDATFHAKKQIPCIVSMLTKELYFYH
Procedure: as §1, §2, §3, §4, §5

[1] = Table 1, Formula A, 30 min preincubation, room temperature, read-out: mICE IC50

| SMILES | IC50 (mICE; [1]) [nM] | IC50 (CPP32) [nM] | IC50 (mICE; read-out: IC50 (mICE)) [nM] |
| --- | --- | --- | --- |
| C[C@H](NC(=O)c1cc2ccccc2n1C)C(=O)N[C@H](C=O)CC(=O)O [Example 4, (3S)-3-[(1-Methylindole-2-Carbonyl)Alaninyl]Amino-4-Oxobutanoic Acid] | 177 | > 10000 |  |
| Cn1c(C(=O)N2CCC[C@H]2C(=O)N[C@H](C=O)CC(=O)O)cc2ccccc21 [Example 7, (3S)-3-[(1-Methylindole-2-Carbonyl)Prolinyl]Amino-4-Oxo-Butanoic Acid] | 11700 | > 50000 |  |
| CC(C)C(NC(=O)c1cc2ccccc2n1C)C(=O)NC(C=O)CC(=O)O [Example 10, (3S)-3-[1-Methylindole-2-Carbonyl)Vainyl]Amino-4-Oxo-Butanoic Acid] | 531 | 2480 |  |
| CC(C)C[C@H](NC(=O)c1cc2ccccc2n1C)C(=O)N[C@H](C=O)CC(=O)O [Example 13, (3S)-3-[(1-Methylindole-2-Carbonyl)Leucinyl]Amino-4-Oxo-Butanoic Acid] | 5520 | 5620 |  |
| Cn1c(C(=O)NCC(=O)N[C@H](C=O)CC(=O)O)cc2ccccc21 [Example 21, (3S)-3-[(1-Methylindole-2-Carbonyl)Glycinyl]-Amino-4-Oxo-Butanoic Acid] | 34700 | > 50000 |  |
| C[C@H](NC(=O)c1cc2ccccc2n1Cc1ccccc1)C(=O)N[C@H](C=O)CC(=O)O [Example 24, (3S)-3-[(1-Benzylindole-2-Carbonyl)Alaninyl]Amino-4-Oxo-Butanoic Acid] | 393 | > 50000 |  |
| C=CCCn1c(C(=O)NC(C(=O)NC(C=O)CC(=O)O)C(C)C)cc2ccccc21 [Example 27, (3S)-3-[(1-(4′-Butenyl)indole-2-Carbonyl)Valinyl]Amino-4-Oxobutanoic Acid] | 313 | 1450 |  |
| CC(NC(=O)c1cc2ccccc2n1CC(=O)O)C(=O)N[C@H](C=O)CC(=O)O (stereo partly drawn) [Example 30, (3S)-3-[(1-(Carboxymethyl)Indole-2-Carbonyl)Alaninyl] Amino-4-Oxobutanoic Acid] | 1630 | > 50000 |  |
| CC(NC(=O)c1cc2ccccc2n1CCC(=O)O)C(=O)NC(C=O)CC(=O)O [Example 33, (3S)-3-(1-(2′-Carboxyethyl)Indole-2-Carbonyl)Alaninyl] Amino-4-Oxobutanoic Acid] | 198 | > 50000 |  |
| Cc1c(C(=O)NC(C(=O)NC(CC(=O)O)C(=O)COc2cc3ccccc3cc2-c2ncc[nH]2)C(C)C)n(C)c2ccccc12 (stereo not shown) [Example 80, N-[(1,3-dimethyl-indole-2-cabonyl)valinyl]-3-amino-5-[3-(imidazol-2-yl)-naphthyl-2-oxy]-4-oxo-pentanoic Acid] |  |  | < 1000 |
| CC(C)Cc1c(C(=O)NC(C(=O)NC(CC(=O)O)C(=O)COc2ccccc2F)C(C)C)n(C)c2ccccc12 (stereo not shown) [Example 87, N-[(1-methyl-3-isobutyl-indole-2-cabonyl)valinyl]-3-amino-4-oxo-5-(2-fluorophenyloxy)-pentanoic Acid] |  |  | < 1000 |
| CC(C)Cc1c(C(=O)NC(CC(C)C)C(=O)NC(CC(=O)O)C(=O)COC(=O)c2c(Cl)cccc2Cl)n(C)c2ccccc12 (stereo not shown) [Example 90, N-[(1-methyl-3-isobutyl-indole-2-cabonyl)leucinyl]-3-amino-5-(2,6-dichlorobenzoyl) oxy-4-oxo Pentanoic Acid] |  |  | < 1000 |
| CC(C)Cc1c(C(=O)NC(CC(C)C)C(=O)NC(CC(=O)O)C(=O)COP(=O)(c2ccccc2)c2ccccc2)n(C)c2ccccc12 (stereo not shown) [Example 94, N-[(1-methyl-3-isobutyl-indole-2-cabonyl)leucinyl]-3-amino-5-(diphenylphosphoroxy)-4-oxo-pentanoic Acid] |  |  | < 1000 |
| CC(C)Cc1c(C(=O)NC(CC2CCCCC2)C(=O)NC(CC(=O)O)C(=O)COC(=O)c2c(Cl)cccc2Cl)n(C)c2ccccc12 (stereo not shown) [Example 99] |  |  | < 1000 |
| CC(C)C(NC(=O)c1cc2ccccc2n1CC(=O)O)C(=O)NC(CC(=O)O)C(=O)COc1c(F)c(F)cc(F)c1F (stereo not shown) [Example 118, N-{[1-(carboxymethyl)-indole-2-cabonyl]valinyl}-3-amino-4-oxo-5-(2,3,5,6-tetrafluorophenyloxy)-pentanoic Acid] |  |  | < 1000 |

More lines, now with the values ahead:

| IC50 (mICE; [1]) [nM] | IC50 (CPP32) [nM] | IC50 (mICE; read-out: IC50 (mICE)) [nM] | SMILES |
| --- | --- | --- | --- |
|  |  | < 1000 | CC(C)Cc1c(C(=O)NC(C(=O)NC(CC(=O)O)C(=O)COc2c(F)c(F)cc(F)c2F)C(C)C)n(C)c2ccccc12 (stereo not shown) [Example 83, N-[(1-methyl-3-isobutyl-indole-2-cabonyl)valinyl]-3-amino-4-oxo-5-(2,3,5,6-tetrafluorophenyloxy)-pentanoic Acid] |
|  |  | < 1000 | CC(C)Cc1c(C(=O)NC(CC(C)C)C(=O)NC(CC(=O)O)C(=O)COc2c(F)c(F)cc(F)c2F)n(C)c2ccccc12 (stereo not shown) [Example 92, N-[(1-methyl-3-isobutyl-indole-2-cabonyl)leucinyl]-3-amino-4-oxo-5-(2,3,5,6-tetrafluorophenyloxy)-pentanoic Acid] |
|  |  | < 1000 | CC(C)Cc1c(C(=O)NC(CC2CCCCC2)C(=O)NC(CC(=O)O)C(=O)COc2c(F)c(F)cc(F)c2F)n(C)c2ccccc12 (stereo not shown) [Example 97, N-[(1-methyl-3-isobutyl-indole-2-cabonyl)cyclohexylalaninyl]-3-amino-4-oxo-5-(2,3,5,6-tetrafluorophenyloxy)-pentanoic Acid] |
|  |  | < 1000 | CC(C)Cc1c(C(=O)NC(CC2CCCCC2)C(=O)NC(CC(=O)O)C(=O)COc2cc(C(F)(F)F)nn2-c2ccccc2)n(C)c2ccccc12 (stereo not shown) [Example 101, N-[(1-methyl-3-isobutyl-indole-2-cabonyl)cyclohexylalaninyl]-3-amino-4-oxo-5-[1-phenyl-3-(trifluoromethyl)pyrazol-5-yloxy]-pentanoic Acid] |
|  |  | < 1000 | Cc1c(C(=O)NC(C(=O)NC(CC(=O)O)C(=O)COc2c(F)c(F)cc(F)c2F)C(C)C)n(C)c2ccccc12 (stereo not shown) [Example 109, N-[(1,3-dimethyl-indole-2-cabonyl)valinyl]-3-amino-4-oxo-5-(2,3,5,6-tetrafluorophenyloxy)-pentanoic Acid] |
|  |  | < 1000 | CC(C)C(NC(=O)c1cc2ccccc2n1C)C(=O)NC(CC(=O)O)C(=O)COc1c(F)c(F)cc(F)c1F (stereo not shown) [Example 112, N-[(1-methyl-indole-2-cabonyl)valinyl]-3-amino-4-oxo-5-(2,3,5,6-tetrafluorophenyloxy)-pentanoic Acid] |
|  |  | < 1000 | CC(C)C(NC(=O)c1cc2cc(F)ccc2n1C)C(=O)NC(CC(=O)O)C(=O)COc1c(F)c(F)cc(F)c1F (stereo not shown) [Example 115, N-[(5-fluoro-1-methyl-indole-2-cabonyl)valinyl]-3-amino-4-oxo-5-(2,3,5,6-tetrafluorophenyloxy)-pentanoic Acid] |
